Drawing on PubChem BioAssay AID179 (DTP/NCI, 2004), this text covers EC50, IC50 and outcome for 73 compounds.

Where “and” joins values, the source holds several entries; their conditions need not be identical. Equal values may be shown once. Calls of active or inactive are those of the source.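 The calls were made as follows: active = compounds giving half or more protection of infected cells from virus-caused growth loss, again on retest; inactive = the rest.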

A word on the EC50: it is the concentration that produces a half-maximal response. Usually IC50 stands for the concentration that inhibits the measured activity by half. Read a high IC50 as weaker potency.

For the assay, the system named is CEM cells HIV-1 protection, formazan growth assay. Kind of assay: NCI AIDS Antiviral Assay. The note with it: for IC50: measured here: growth of uninfected CEM cells. In a few lines:
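Soluble formazan readout of cell growth; CEM cells ± HIV-1; 5 drug concs. ≥50% protection → retest; ≥50% again = moderately active; reproducible 100% = confirmed active.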

`N#Cc1sc2c(c1OC(=O)c1ccc(C(F)(F)F)cc1)c(=O)n(-c1ccccc1)c(=S)n2-c1ccccc1`: the EC50 was more than 200 µM and the half-inhibitory concentration (IC50) turned out to be 2.24 µM.
Regarding `O=C(OCc1ccccc1)C1CCN1C(c1ccccc1)c1ccccc1` (stereo not drawn), the EC50 was more than 100 µM and the IC50 is more than 100 µM.
With `CN1CN(C(=O)N2CN(C)C(=O)N(C)C2)CN(C)C1=O`, the EC50 is more than 158 µM and the IC50 is more than 158 µM.
For the compound `CCCCCCCCCC=C(c1cc(Cl)c(OC)c(C(=O)O)c1)c1cc(Cl)c(OC)c(C(=O)O)c1`, the EC50 was 263 µM and the IC50 is 316 µM.
Regarding `CNC(=O)CCC(NC(C)=O)C(=O)NC(Cc1ccc(NC(=O)CCCCC(C)=O)cc1)C(=O)NC(CCC(=O)NC)C(=O)NC` (stereo not drawn), the EC50 is more than 200 µM and the IC50 is more than 200 µM.
Consider `COc1c(Cl)cc(C(=CCCCC(=O)O)c2cc(Cl)c(OC)c(C(=O)O)c2)cc1C(=O)O`, for which the EC50 was more than 200 µM and the IC50 was more than 200 µM.
Regarding `CN(C)CCCNC(=O)c1cc(NC(=O)c2cc(NC(=O)c3cc(NC(=O)c4ccc(C(=O)Nc5cn(C)c(C(=O)Nc6cn(C)c(C(=O)Nc7cn(C)c(C(=O)NCCCN(C)C)n7)n6)n5)cc4)cn3C)cn2C)cn1C`, the EC50 was more than 50.1 µM and the IC50 is more than 50.1 µM.
In the case of `Cc1ccc(S(=O)(=O)[C@@H](Cl)[C@H]2N=C(Cl)NN=C2c2ccccc2)cc1`, the EC50 is more than 200 µM and the IC50 was 37.2 µM.
As to `O=c1c2ccccc2c(=O)n2n1CC=CC2`, the result was inactive.
As for `O=C1Nc2cccnc2NC2=C1CSC2`, the EC50 was more than 200 µM and the half-maximal inhibitory concentration (IC50) is more than 200 µM.
`COc1cc2c(cc1OC)C/C(=N\O)c1cc(OC)c(OC)cc1/C=C\2`: the EC50 is more than 200 µM and the IC50 stood at 1.74 µM.
For the compound `C/C(CC(=O)Nc1ccc(C)c(C)c1)=N\NC(N)=O`, the EC50 is more than 692 µM and the IC50 was more than 692 µM.
Regarding `O=C([O-])[C+](C=Cc1cccc2ccccc12)C(=O)O`, the EC50 is more than 708 µM and the IC50 is 257 µM.
In the same order, the values of `Cc1ncc2c(n1)CCC1=C2OS(=O)(=O)CC1N(C)C` (stereo not drawn) are more than 200 µM and 38.9 µM.
Taken in the same sequence, the figures for `O=C1c2ccccc2CC1C1(O)C(=O)Nc2c(Cl)cc(Cl)cc21` (stereo not drawn) were more than 102 µM and more than 102 µM.
`Cc1cn(CC(CO)CCO)c(=O)[nH]c1=O` (stereo not drawn): the EC50 is more than 1100 µM and the IC50 is more than 1100 µM.
Regarding `CCSc1nc2n(c(=S)n1)CCN2C`, the EC50 was more than 708 µM and the IC50 was 138 µM.
In the same order, the values of `CCCCCCCCCCCCCCCCOP(=O)(O)OP(=O)(O)OCC1OC(n2cnc3c(N)ncnc32)C(O)C1O` (stereo not drawn) are more than 200 µM and 120 µM.
Take `C=CC[P@@]1(=O)O[C@H](c2ccccc2)C(C)N1C(C)C` (stereo partly drawn): the result was inactive.
Consider `CC1(C)Oc2ccc3c(=O)cc(-c4ccc(F)cc4)oc3c2C1C(=O)O` (stereo not drawn), for which the EC50 was more than 200 µM and the IC50 was more than 200 µM.
Regarding `CCN(CC)CCC(=O)NC1c2ccccc2Oc2c(C)cccc21` (stereo not drawn), the EC50 is more than 275 µM and the IC50 turned out to be 58.9 µM.
Taken in the same sequence, the figures for `Nc1cc(C(=O)O)ccc1O` were more than 200 µM and 39.8 µM.
In the same order, the values of `COC(=O)N1CC2CC=CC(C2)c2ccccc21` (stereo not drawn) are more than 204 µM and more than 204 µM.
Taken in the same sequence, the figures for `O=C(O)[C@@H]1CSCN1C(=O)[C@@H]1CCC(=S)N1` were more than 200 µM and more than 200 µM.
For the compound `CC1=NOC(=O)C12CC2`, the EC50 is more than 200 µM and the IC50 was more than 200 µM.
As for `CC1=NNC(=O)C1`, the EC50 is more than 200 µM and the IC50 amounted to 66.1 µM.
`N#C/C(=C\c1ccco1)C(N)=O`: the EC50 is more than 200 µM and the IC50 is more than 200 µM.
In the case of `O=C(CCC(NC(=O)OCc1ccccc1)C(=O)OCc1ccccc1)Nc1cccc(OCc2ccccc2)c1` (stereo not drawn), the EC50 was more than 200 µM and the IC50 came out at 35.5 µM.
In the same order, the values of `C1=C2CN3CCC45c6ccccc6N6CCC(OC1)C(C2CC34)C65` (stereo not drawn) are more than 776 µM and 302 µM.
Turning to `CCOc1ccc(NC(=S)NC=C(C(N)=O)C(N)=O)cc1`, the EC50 is more than 200 µM and the IC50 was more than 200 µM.
Take `COC1(C)CNCC(C)(C)NC(=O)C(C)(OC)CNCC(C)(C)NC1=O` (stereo not drawn): the EC50 is more than 81.3 µM and the IC50 was more than 81.3 µM.
Regarding `CCOc1ccc2nc(NC(=O)C(=O)C(C(=O)c3ccccc3-c3ccccc3)C3OC(=O)c4ccccc43)sc2c1` (stereo not drawn), the EC50 is more than 309 µM and the half-maximal inhibitory concentration (IC50) was 132 µM.
Turning to `CN1CCC(c2ccccc2)(c2ccccc2)C(O)C1` (stereo not drawn), the result was inactive.
On the same count and under the same terms, as for `CC(=O)/C(=C/N1CCNC1=S)C(=O)Nc1ccc(Cl)cc1`, the entry is “inactive”.
Turning to `CN(C)C(c1ccccc1)C1COC2Cc3ccccc3C1O2` (stereo not drawn), the EC50 was more than 200 µM; the IC50 is > 200 µM and 151 µM.
As for `CC(C)(C)NP(=O)(NC(C)(C)C)NC(C)(C)C`, the EC50 is more than 200 µM and the IC50 came to 107 µM.
In the same order, the values of `O=C1NC(=O)C(=Cc2ccc([N+](=O)[O-])cc2)C(=O)N1` are more than 138 µM and more than 138 µM.
In the same order, the values of `COc1cc(N)c2nc(C(O)C(O)C(O)CO)cnc2c1` (stereo not drawn) are more than 851 µM and 617 µM.
In the same order, the values of `COc1cccc(/C=C2\CCCc3ccccc3C2=O)c1` are more than 200 µM and 26.3 µM.
In the case of `O=C1CC2(CCN(Cc3ccccc3)CC2)C(=O)N1N1CCCCC1`, the EC50 was more than 200 µM and the IC50 is more than 200 µM.
As for `CC(=O)Oc1cc2c(cc1OC(C)=O)C1(C)CCC2(C)c2cc(OC(C)=O)c(OC(C)=O)cc21`, the result was inactive.
`NC(N)=N/N=C(\c1nc2ccc([N+](=O)[O-])cc2[nH]c1=O)C(O)c1ccc([N+](=O)[O-])cc1` (stereo not drawn): the EC50 was more than 158 µM and the IC50 is more than 158 µM.
Take `COc1cccc(-c2nc(-c3cnccn3)n(COCCO)n2)c1`: the EC50 is more than 200 µM and the IC50 is more than 200 µM.
With `COc1nc2nc[nH]c2c(=O)[nH]1`, the result was inactive.
As to `COc1ccc(N2C(=Nc3ccccc3)SC(=N/S(=O)(=O)c3ccccc3)/C2=N\S(=O)(=O)c2ccccc2)cc1`, the EC50 is more than 200 µM and the IC50 was 11.7 µM.
Take `CC1C2CC(C/C2=N/O)C1(C)C` (stereo not drawn): the EC50 is more than 1480 µM and the IC50 was 437 µM.
Taken in the same sequence, the figures for `CC(=O)C1C(=O)C(=O)N(CCN2C(=O)C(=O)C(C(C)=O)C2=O)C1=O` (stereo not drawn) were more than 11.2 µM and more than 11.2 µM.
Taken in the same sequence, the figures for `O=C(C1OC1c1ccc(F)cc1)C12CC3CC(CC(C3)C1)C2` (stereo not drawn) were more than 200 µM and 12 µM.
In the same order, the values of `Cc1cccc(N=C2NC(=O)C(CC(=O)Nc3cccc(C)c3C)S2)c1` (stereo not drawn) are more than 70.8 µM and more than 70.8 µM.
As to `CN(C)CCCC12OC(c3ccccc31)C(O)c1ccccc12` (stereo not drawn), the EC50 is more than 200 µM and the IC50 is more than 200 µM.
With `COc1cc2cc(C(=O)N3CC(CCl)c4ccc(N(C)C)cc43)[nH]c2c(OC)c1OC` (stereo not drawn), the EC50 was more than 2 µM and the IC50 worked out at 0.138 µM.
In the same order, the values of `Cc1cc(=O)[nH]c(NNC(C#N)c2ccccc2O)n1` (stereo not drawn) are more than 182 µM and 0.38 µM.
In the case of `COC(=O)C1C(=O)C(C(=O)OC)C2C(C(=O)OC)C(=O)C(C(=O)OC)C12` (stereo not drawn), the EC50 was 166 µM and the IC50 amounted to 355 µM.
Taken in the same sequence, the figures for `CCOC(=O)NC(C)(C)CN(CCO)C(=O)OCC` were more than 200 µM and more than 200 µM.
In the same order, the values of `O=c1cc(-c2ccccc2)oc2ccc(O)cc12` are more than 200 µM and 67.6 µM.
For the compound `O=C1c2ccccc2S(=O)(=O)c2ccccc21`, the EC50 is 129 µM and the IC50 amounted to 501 µM.
In the same order, the values of `COc1cc(OC)c(OC)cc1/C=N/N=C(\N)NO` are more than 200 µM and more than 200 µM.
Taken in the same sequence, the figures for `CN1CCc2c([nH]c3ccccc23)C1` were more than 200 µM and more than 200 µM.
For `CC1=CC(=O)N(n2c(Cc3ccc(Cl)cc3)n[nH]c2=O)C1=O`, the EC50 was more than 200 µM and the IC50 is more than 200 µM.
Regarding `COc1ccc2c(c1OC)CN(C)CCc1cc3c(c(OC)c1C(=O)C2)OCO3`, the result was inactive.
In the case of `CC1(C)CCCC2(C)C3=C(CCC12)C(=O)OC3` (stereo not drawn), the EC50 is more than 30.9 µM and the IC50 is more than 30.9 µM.
For `Cc1cc(-n2c(C)ccc2C)no1`, the EC50 was more than 200 µM and the IC50 was more than 200 µM.
As to `C(=C/P(c1ccccc1)c1ccccc1)/P(c1ccccc1)c1ccccc1.C(=CP(c1ccccc1)c1ccccc1)P(c1ccccc1)c1ccccc1.[Pt]`, the EC50 was more than 3.63 µM and the IC50 amounted to 2.63 µM.
Taken in the same sequence, the figures for `COc1cc2c(c3c1c(=O)c1ccccc1n3C)C=CC1(CCCCC1)O2` were more than 200 µM and 7.76 µM.
In the same order, the values of `COc1ccccc1Nc1nc2c([nH]1)c(=O)n(C)c(=O)n2C` are more than 200 µM and more than 200 µM.
Take `CC1OC(n2ncc(=O)[nH]c2=O)C=CC1=O` (stereo not drawn): the EC50 was more than 1120 µM; the IC50 is 10 µM and 6.92 µM.
`CSc1cc(-c2ccccn2)nc(-c2ccccn2)c1.CSc1cc(-c2ccccn2)nc(-c2ccccn2)c1.[Cu+2].[O-][Cl+3]([O-])([O-])[O-]`: the EC50 is more than 200 µM and the IC50 is 0.0631 µM.
Regarding `O=C1C=CC(=O)c2c(O)c(CO)c(CO)c(O)c21`, the outcome was inactive.
Take `CC1CN=C(Nc2ccc(S(N)(=O)=O)cc2)S1` (stereo not drawn): the EC50 is more than 200 µM and the IC50 was 178 µM.
For the compound `CCCCCCc1cc(C(=O)Nc2ccc(Cl)cc2)nc(=S)[nH]1`, the EC50 was more than 708 µM and the IC50 is 479 µM.
Taken in the same sequence, the figures for `CN(C)CCCNc1ccc([N+](=O)[O-])c2nc3ccccc3c(N)c12` were more than 200 µM and 0.209 µM.
`Cc1cccc2c(=O)c3cccc([C@H](C)C(=O)O)c3oc12`: the EC50 was more than 200 µM and the IC50 was more than 200 µM.
With `COc1cc(C(C[N+](=O)[O-])SC(C)=O)ccc1OCc1ccccc1` (stereo not drawn), the EC50 was more than 200 µM and the IC50 came out at 1.95 µM.
